Source: a melting point compilation (Tetko et al.)

melting point	SMILES
114 to 116 °C	CCCCCCCCCCCC(=O)N1CC(=O)NC(=O)C1
182 °C	O=C(c1ccccc1)C(c1ccccc1)(c1ccccc1)c1ccccc1
-88 °C	CC(C)OC(C)(C)C
244 to 245 °C	O=C(O)c1ccccc1N=NC1SC(=S)NC1=O (stereo unspecified)
229 to 230 °C	CC(CCC(=O)O)C1CCC2C3C(=O)C(Br)C4CC(C(=O)O)CCC4(C)C3CC(C(=O)O)C12C (stereo unspecified)
140 °C	COc1ccc(-c2onc(C(=O)c3ccc(Br)cc3)c2S(=O)(=O)c2ccccc2)cc1
86 °C	CCn1c(-c2ccccc2)cc2ccccc21
209 to 214 °C	N[C@@H](CSCc1ccccc1)C(=O)O
-13.6 °C	C1CCC(CCCCCC2CCCCC2)CC1
49 °C	CCc1cc2ccccc2ccc1=O
79.5 °C	COc1ccccc1Oc1ccccc1OC
120 to 121 °C	Cc1nnc(SCc2ccccc2)n1N=Cc1ccc(Cl)cc1
98 °C	O=C(OC(=O)C(c1ccccc1)c1ccccc1)C(c1ccccc1)c1ccccc1
84 to 86 °C	O=C(Cl)c1cccc2ccsc12
59 to 61 °C	Clc1ccc(CSSCc2ccc(Cl)cc2)cc1
201 to 203 °C	O=c1c(Cl)c(Cl)cnn1-c1ccc(F)c(Cl)c1
95 °C	CNc1ccc(C(=O)OC)cc1
-99.4 °C	FC(F)(F)C(F)(F)Cl
58 °C	COC(=O)c1cccc(C=O)c1
28 °C	BrCCI
89 to 91 °C	O=Cc1ccc(-c2ccc(F)c(C(F)(F)F)c2)o1
153 to 155 °C	O=C1CC2(CCCC2)CC(=O)N1

melting point	SMILES
42.5 °C	CCCCCCN1CC(C(=O)O)CC1=O (stereo unspecified)
37 °C	Cc1ccc(C)c(C)n1
128 to 133 °C	CC(C)CCC[C@@H](C)[C@H]1CC[C@H]2[C@@H]3CC[C@H]4CC(=O)CC[C@]4(C)[C@H]3CC[C@]12C
262 to 264 °C	NCC(=O)NCC(=O)O
229 °C	O=[N+]([O-])c1ccc(-c2nnc3n2NC(c2ccc([N+](=O)[O-])cc2)S3)cc1 (stereo unspecified)
121 °C	Clc1c2ccccc2nc2ccccc12
178 to 182 °C	O=C(O)Cc1ccccc1C(=O)O
120 to 122 °C	O=[N+]([O-])c1cccc2scc(Br)c12
223 °C	CC(=O)Nc1ccc(Br)cc1C(=O)O
54 °C	Oc1cc(F)c(F)c(F)c1
221 °C	CC1(C)OC(=O)C(=Cc2ccc(-c3ccc([N+](=O)[O-])cc3)o2)C(=O)O1
233 °C	COc1ccc(Cc2cnc(N)nc2N)cc1OC
222 to 227 °C	Nc1ccc2cc(C(=O)O)ccc2c1
68 to 72 °C	COC(C(=O)O)c1ccccc1 (racemic)
37 °C	CCCCCCCCCCC(=O)CCCCC
56.5 °C	CCOC(=O)COc1cccc2ccccc12
144 °C	CN(C)CC(=O)N1c2ccccc2Sc2ccccc21
58 °C	CC=C(OC)C(=O)O
49 °C	c1ccc(Oc2ccccc2-c2ccccc2)cc1
191 °C	O=C(C1=NOC2C(=O)N(c3cccc([N+](=O)[O-])c3)C(=O)C12)c1cccc2ccccc12 (stereo unspecified)
38 to 39 °C	Brc1cccc(COc2ccccc2)c1

SMILES	melting point
CCCCCCCCC=CCCCCCCCC(=O)Nc1ccccc1	41 °C
CCC1CC2CC3c4[nH]c5cc(OC)ccc5c4CCN(C2)C13 (stereo unspecified)	214 °C
CNC(=O)ON=C1C(Cl)C2CC(C#N)C1C2 (stereo unspecified)	144 °C
O=S1(=O)CCCCO1	13.5 °C
CC(=O)OCC12CC(OC(=O)CC(C)C)C(C)=CC1OC1C(O)C(OC(C)=O)C2(C)C12CO2 (stereo unspecified)	152 °C
O=Cc1ccc([N+](=O)[O-])cc1[N+](=O)[O-]	72 °C
O=C1c2ccccc2C1Cl (stereo unspecified)	67 °C
O=C(Cl)c1ccc(I)cc1	63 °C
